Laboratory results from patent US9783510B2, “Small molecule mediated transcriptional induction of E-cadherin” (Vanderbilt University, priority 2014, dated 2017).

Legend:
[1] = test system: E-cadherin expression in H520 cells; experiment: E-cadherin expression, in-cell Western (ICW), H520 cells; format: cell-based; details: Homo sapiens, NCI-H520; for fold induction at 10 µM: change in expression level of E-cadherin in response to 10 μM compound, 24 hours, H520 cells
Description: SW620 and H520 cells (5×10^4/100 μL) were seeded in a 96-well plate prior to treatment. Cells were treated with 10 μM concentration of synthesized compound in quadruplicate for 24 hours in RPMI 1640 supplemented medium and 100 μg/mL penicillin-streptomycin. The cells were then fixed with 100% methanol for 20 minutes at 4° C. The wells were then washed 2 times with PBS, permeabilized in 2% bovine serum albumin (BSA) and 0.2% TritonX-100 in PBS for 30 minutes at room temperature with gentle agitation, and blocked in LI-COR blocking buffer for 30 minutes at room temperature with gentle agitation. The cells were then incubated with the following primary antibodies: anti-E-Cadherin (1:500) and anti-α-Tubulin (1:1000) diluted in blocking buffer (1:1 dilution in PBS) for 2 hours at room temperature with gentle agitation. The cells were washed 4 times in PBS-T for 5 minutes each, and then incubated with the following secondary antibodies conjugated to a fluorescent entity: IRDye 800-conjugated goat anti-rabbit IgG (1:1000) and IRDye-700-conjugated goat anti-mouse IgG (1:2000) in blocking buffer (1:1 dilution in PBS) with gentle agitation for 1 h at room temperature. The cells were washed 4 times in PBS-T for 5 minutes each followed by a single wash with PBS. All liquid was removed from the wells and the plates were visualized and analyzed on the Odyssey IR imaging system (LI-COR Biosciences).
The assay was further optimized in the following manner. The cells were washed 2 times with PBS, fixed in 100% methanol at room temperature for 15 minutes, and again washed 2 times with PBS. The cells were then incubated with the following primary antibodies: anti-E-Cadherin (1:200) and anti-α-Tubulin (1:2000) diluted in ice cold 2% bovine serum albumin (BSA) and 0.2% TritonX-100 in PBS for 1 hour at room temperature with gentle agitation. The cells were washed 2 times in PBS and then incubated with the following secondary antibodies conjugated to a fluorescent entity: Licor 800-conjugated goat anti-rabbit IgG (1:2000) and IRDye-700-conjugated goat anti-mouse IgG (1:2000) in ice cold 2% BSA and 0.2% TritonX-100 in PBS with gentle agitation for 45 minutes at room temperature. The wells were washed 2 times in PBS, dried, and analyzed as previously mentioned.
Changes in expression level of E-cadherin in response to 10 μM compound in H520 cells was determined in a cell-based functional assay as described above, and the data are shown in Table IV. The compound number corresponds to the compound numbers used in Table II.
EC50 of inducement of E-cadherin expression in H520 cells was determined in a cell-based functional assay as described above, and the data are shown in Table VI. The compound number corresponds to the compound numbers used in Table II.

[2] = test system: E-cadherin expression in SW620 cells; experiment: E-cadherin expression, in-cell Western (ICW), SW620 cells; format: cell-based; details: for fold induction at 10 µM / EC50: Homo sapiens; for fold induction at 10 µM: SW-620, 24 h; for fold induction at 10 µM / fold change SW620 ICW: change in expression level of E-cadherin in response to 10 μM compound, 24 hours, SW620 cells; for EC50: SW-620, inducement of E-cadherin expression in SW620 cells
Procedure, shortened: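 SW620 cells were treated with compound for 24 h in RPMI 1640 (single-point at 10 μM; EC50 also determined), in quadruplicate. After methanol fixation, in-cell Western with anti-E-cadherin and anti-α-tubulin primaries and IRDye 800/700 secondaries. Read on an Odyssey IR imager.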

| SMILES | fold induction at 10 µM [2] | other results |
| --- | --- | --- |
| O=C(NCCNC(=O)c1cc(Br)ccc1O)c1cc(-c2ccccc2)on1 [Compound 2, N-(2-(5-bromo-2-hydroxybenzamido)ethyl)-5-phenylisoxazole-3-carboxamide] | 1.18 | fold induction at 10 µM [1]: 1.14 |
| O=C(NCCNC(=O)c1cc(-c2ccccc2)on1)c1ccncc1 [Compound 4, N-(2-(isonicotinamido)ethyl)-5-phenylisoxazole-3-carboxamide] | 2.79 | fold induction at 10 µM [1]: 2.87; EC50 ([1]; inducement of E-cadherin expression in H520 cells): 5.1 µM; EC50 [2]: 8.8 µM |
| O=C(NCCNC(=O)c1nccs1)c1cc(-c2ccccc2)on1 [Compound 5, 5-phenyl-N-(2-(thiazole-2-carboxamido)ethyl)isoxazole-3-carboxamide] | 8.98 | fold induction at 10 µM [1]: 4.22; EC50 [2]: 4.8 µM |
| O=C(Cc1ccccc1O)NCCNC(=O)c1cc(-c2ccccc2)[nH]n1 [Compound 123, N-(2-(2-(2-hydroxyphenyl)acetamido)ethyl)-5-phenyl-1H-pyrazole-3-carboxamide] | 1.37 | fold induction at 10 µM [1]: 1.24 |
| O=C(NCCNC(=O)c1nccs1)c1cc(-c2ccccc2)[nH]n1 [Compound 125, N-(2-(5-phenyl-1H-pyrazole-3-carboxamido)ethyl)thiazole-2-carboxamide] | 1.77 | fold induction at 10 µM [1]: 1.1 |
| O=C(NCCCNC(=O)c1n[nH]c2ccccc12)c1cc(-c2ccccc2)on1 [Compound 22, N-(3-(1H-indazole-3-carboxamido)propyl)-5-phenylisoxazole-3-carboxamide] | 1.62 | fold induction at 10 µM [1]: 1.88 |
| O=C(NCCCNC(=O)c1cc(Br)cnc1O)c1cc(-c2ccccc2)on1 [Compound 68, N-(3-(5-bromo-2-hydroxynicotinamido)propyl)-5-phenylisoxazole-3-carboxamide] | 1.61 | – |
| O=C(NCCCNC(=O)c1cc(-c2ccccc2)on1)c1cc(Cl)ccn1 [Compound 57, N-(3-(4-chloropicolinamido)propyl)-5-phenylisoxazole-3-carboxamide] | 3.3 | – |
| Nc1ccc(C(=O)NCCCNC(=O)c2cc(-c3ccccc3)on2)cn1 [Compound 14, N-(3-(6-aminonicotinamido)propyl)-5-phenylisoxazole-3-carboxamide] | – | fold change SW620 ICW [2]: 0.70 fold |
| COc1ncccc1C(=O)NCCCNC(=O)c1cc(-c2ccccc2)on1 [Compound 70, N-(3-(2-methoxynicotinamido)propyl)-5-phenylisoxazole-3-carboxamide] | 2.62 | – |
| Cn1ccc(C(=O)NCCCNC(=O)c2cc(-c3ccccc3)on2)n1 [Compound 28, N-(3-(1-methyl-1H-pyrazole-3-carboxamido)propyl)-5-phenylisoxazole-3-carboxamide] | 3.42 | – |
| Cc1ccc(C(=O)NCCCNC(=O)c2cc(-c3ccccc3)on2)c(O)n1 [Compound 63, N-(3-(2-hydroxy-6-methylnicotinamido)propyl)-5-phenylisoxazole-3-carboxamide] | 4.59 | EC50 [2]: 5.64 µM |
| O=C(NCCCNC(=O)c1cncc(Cl)n1)c1cc(-c2ccccc2)on1 [Compound 94, N-(3-(6-chloropyrazine-2-carboxamido)propyl)-5-phenylisoxazole-3-carboxamide] | 3.69 | – |
| O=C(NCCCNC(=O)c1cc(-c2ccccc2)on1)c1ccc(O)c(O)c1 [Compound 36, N-(3-(3,4-dihydroxybenzamido)propyl)-5-phenylisoxazole-3-carboxamide] | 2.69 | – |
| Cc1ccnc(O)c1C(=O)NCCCNC(=O)c1cc(-c2cccs2)on1 [Compound 51, N-(3-(2-hydroxy-4-methylnicotinamido)propyl)-5-(thiophen-2-yl)isoxazole-3-carboxamide] | 2.73 | – |
| O=C(NCCCNC(=O)c1cncc(Cl)n1)c1cc(-c2cccs2)on1 [Compound 83, N-(3-(6-chloropyrazine-2-carboxamido)propyl)-5-(thiophen-2-yl)isoxazole-3-carboxamide] | 2.64 | – |

| SMILES | fold induction at 10 µM [2] | other results |
| --- | --- | --- |
| O=C(NCCCNC(=O)c1cc(-c2ccccc2)on1)c1ccnc(O)c1 [Compound 64, N-(3-(2-hydroxyisonicotinamido)propyl)-5-phenylisoxazole-3-carboxamide] | 1.8 | – |
| O=C(NCCCNC(=O)c1cnc2ccccn12)c1cc(-c2ccccc2)on1 [Compound 87, N-(3-(imidazo[1,2-a]pyridine-3-carboxamido)propyl)-5-phenylisoxazole-3-carboxamide] | 2.4 | – |
| O=C(NCCCNC(=O)c1cc2ccccc2o1)c1cc(-c2ccccc2)on1 [Compound 96, N-(3-(benzofuran-2-carboxamido)propyl)-5-phenylisoxazole-3-carboxamide] | 2.58 | – |
| O=C(NCCCNC(=O)c1ccc(Cl)o1)c1cc(-c2cccs2)on1 [Compound 99, N-(3-(5-chlorofuran-2-carboxamido)propyl)-5-(thiophen-2-yl)isoxazole-3-carboxamide] | 3.66 | – |
| Cc1ncccc1C(=O)NCCCNC(=O)c1cc(-c2cccs2)on1 [Compound 47, N-(3-(2-methylnicotinamido)propyl)-5-(thiophen-2-yl)isoxazole-3-carboxamide] | 2.72 | – |
| O=C(NCCCNC(=O)c1cc(-c2ccccc2)on1)c1cocn1 [Compound 29, N-(3-(oxazole-4-carboxamido)propyl)-5-phenylisoxazole-3-carboxamide] | 3.35 | – |
| O=C(Cc1cccc(O)c1)NCCNC(=O)c1cc(-c2ccccc2)on1 [Compound 7, N-(2-(2-(3-hydroxyphenyl)acetamido)ethyl)-5-phenylisoxazole-3-carboxamide] | 2.92 | – |
| O=C(NCCCNC(=O)c1cccc(Br)n1)c1cc(-c2ccccc2)on1 [Compound 62, N-(3-(6-bromopicolinamido)propyl)-5-phenylisoxazole-3-carboxamide] | 2.59 | – |
| Cc1ccnc(O)c1C(=O)NCCCNC(=O)c1cc(-c2ccccc2)on1 [Compound 69, N-(3-(2-hydroxy-4-methylnicotinamido)propyl)-5-phenylisoxazole-3-carboxamide] | 2 | – |
| Nc1cncc(C(=O)NCCCNC(=O)c2cc(-c3ccccc3)on2)n1 [Compound 118, N-(3-(6-aminopyrazine-2-carboxamido)propyl)-5-phenylisoxazole-3-carboxamide] | 4.38 | EC50 [2]: 5.45 µM |
| O=C(NCCCNC(=O)c1ccc(C(F)(F)F)o1)c1cc(-c2cccs2)on1 [Compound 76, 5-(thiophen-2-yl)-N-(3-(5-(trifluoromethyl)furan-2-carboxamido)propyl)isoxazole-3-carboxamide] | 2.68 | – |
| CCc1ccc(C(=O)NCCCNC(=O)c2cc(-c3ccccc3)on2)o1 [Compound 115, N-(3-(5-ethylfuran-2-carboxamido)propyl)-5-phenylisoxazole-3-carboxamide] | 3.83 | – |
| Nc1ccc(C(=O)NCCCNC(=O)c2cc(-c3ccccc3)on2)cn1 [Compound 90, N-(3-(6-aminonicotinamido)propyl)-5-phenylisoxazole-3-carboxamide] | – | fold change SW620 ICW [2]: 2.50 fold |
| O=C(CCCC[C@@H]1SC[C@@H]2NC(=O)N[C@@H]21)NCCCNC(=O)c1cc(-c2ccccc2)on1 (stereo in doubt) [Compound 19, N-(3-(5-((3aS,4S,6aR)-2-oxohexahydro-1H-thieno[3,4-d]imidazol-4-yl)pentanamido)propyl)-5-phenylisoxazole-3-carboxamide] | 1.25 | – |
| O=C(NCCCNC(=O)c1cccc(Br)n1)c1cc(-c2cccs2)on1 [Compound 45, N-(3-(6-bromopicolinamido)propyl)-5-(thiophen-2-yl)isoxazole-3-carboxamide] | 3.35 | – |
